Experimental data taken from ChEMBL document CHEMBL4715808, “Discovery of (1S,2R,3S,4S,5R,6R)-2-Amino-3-[(3,4-difluorophenyl)sulfanylmethyl]-4-hydroxy-bicyclo[3.1.0]hexane-2,6-dicarboxylic Acid Hydrochloride (LY3020371·HCl): A Potent, Metabotropic Glutamate 2/3 Receptor Antagonist with Antidepressant-Like Activity” (J Med Chem, 2016).

What was measured:
[1] = molecular target: T1, Metabotropic glutamate receptor 2 (Homo sapiens, UniProt Q14416)
Description: Antagonist activity at human recombinant mGlu2 receptor stably expressed in golden hamster AV12 cells co-expressing rat EAAT1 assessed as reduction in DCG IV-induced inhibition of forskolin-stimulated cAMP accumulation preincubated for 20 mins followed by incubation with cAMP-d2 conjugate and anti-cAMP cryptate for 1 hr by HTRF assay

[2] = molecular target: T2, Metabotropic glutamate receptor 3 (Homo sapiens, UniProt Q14832); experiment: Displacement of [3H]-LY459477 from recombinant human mGlu3 receptor expressed in hamster AV12 cell membranes co-expressing rat EAAT1 incubated for 90 mins by top count scintillation method; parameters: species or system Cell membrane
[3] = molecular target: T2, Metabotropic glutamate receptor 3; experiment: Antagonist activity at human recombinant mGlu3 receptor stably expressed in golden hamster AV12 cells co-expressing rat EAAT1 assessed as reduction in DCG IV-induced inhibition of forskolin-stimulated cAMP accumulation preincubated for 20 mins followed by incubation with cAMP-d2 conjugate and anti-cAMP cryptate for 1 hr by HTRF assay; type: functional, cell-based
[4] = molecular target: T1, Metabotropic glutamate receptor 2; remark: listed apart in the source
Description: Displacement of [3H]-LY459477 from recombinant human mGlu2 receptor expressed in hamster AV12 cell membranes co-expressing rat EAAT1 incubated for 90 mins by top count scintillation method

[5] = molecular target: T1, Metabotropic glutamate receptor 2; experiment: […] at mGlu2 (unknown origin)
[6] = molecular target: T2, Metabotropic glutamate receptor 3; experiment: […] at mGlu3 (unknown origin)

T1 sequence (Q14416 whole entry): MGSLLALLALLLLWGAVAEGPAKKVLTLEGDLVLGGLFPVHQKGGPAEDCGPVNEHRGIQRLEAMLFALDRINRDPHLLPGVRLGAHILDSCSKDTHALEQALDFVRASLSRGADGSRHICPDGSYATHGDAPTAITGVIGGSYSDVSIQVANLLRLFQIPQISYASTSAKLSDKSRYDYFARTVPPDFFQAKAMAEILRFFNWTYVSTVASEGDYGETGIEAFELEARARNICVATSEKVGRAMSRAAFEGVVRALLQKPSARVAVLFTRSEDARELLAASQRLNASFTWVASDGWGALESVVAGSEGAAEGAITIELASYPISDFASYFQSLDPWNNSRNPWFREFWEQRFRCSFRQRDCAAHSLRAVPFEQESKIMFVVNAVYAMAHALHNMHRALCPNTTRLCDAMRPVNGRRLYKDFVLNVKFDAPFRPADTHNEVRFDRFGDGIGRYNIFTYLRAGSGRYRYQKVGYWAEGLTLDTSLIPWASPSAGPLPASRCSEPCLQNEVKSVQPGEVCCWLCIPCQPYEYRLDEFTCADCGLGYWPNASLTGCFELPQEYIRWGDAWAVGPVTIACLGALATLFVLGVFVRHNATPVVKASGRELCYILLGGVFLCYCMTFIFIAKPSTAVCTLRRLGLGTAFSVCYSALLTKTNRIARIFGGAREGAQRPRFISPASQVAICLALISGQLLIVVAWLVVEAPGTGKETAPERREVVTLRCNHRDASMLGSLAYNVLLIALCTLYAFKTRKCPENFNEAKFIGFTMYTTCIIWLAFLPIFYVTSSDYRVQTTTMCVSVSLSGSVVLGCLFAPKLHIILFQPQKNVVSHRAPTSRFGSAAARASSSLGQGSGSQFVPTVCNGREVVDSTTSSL
T2 sequence (Q14832 whole entry): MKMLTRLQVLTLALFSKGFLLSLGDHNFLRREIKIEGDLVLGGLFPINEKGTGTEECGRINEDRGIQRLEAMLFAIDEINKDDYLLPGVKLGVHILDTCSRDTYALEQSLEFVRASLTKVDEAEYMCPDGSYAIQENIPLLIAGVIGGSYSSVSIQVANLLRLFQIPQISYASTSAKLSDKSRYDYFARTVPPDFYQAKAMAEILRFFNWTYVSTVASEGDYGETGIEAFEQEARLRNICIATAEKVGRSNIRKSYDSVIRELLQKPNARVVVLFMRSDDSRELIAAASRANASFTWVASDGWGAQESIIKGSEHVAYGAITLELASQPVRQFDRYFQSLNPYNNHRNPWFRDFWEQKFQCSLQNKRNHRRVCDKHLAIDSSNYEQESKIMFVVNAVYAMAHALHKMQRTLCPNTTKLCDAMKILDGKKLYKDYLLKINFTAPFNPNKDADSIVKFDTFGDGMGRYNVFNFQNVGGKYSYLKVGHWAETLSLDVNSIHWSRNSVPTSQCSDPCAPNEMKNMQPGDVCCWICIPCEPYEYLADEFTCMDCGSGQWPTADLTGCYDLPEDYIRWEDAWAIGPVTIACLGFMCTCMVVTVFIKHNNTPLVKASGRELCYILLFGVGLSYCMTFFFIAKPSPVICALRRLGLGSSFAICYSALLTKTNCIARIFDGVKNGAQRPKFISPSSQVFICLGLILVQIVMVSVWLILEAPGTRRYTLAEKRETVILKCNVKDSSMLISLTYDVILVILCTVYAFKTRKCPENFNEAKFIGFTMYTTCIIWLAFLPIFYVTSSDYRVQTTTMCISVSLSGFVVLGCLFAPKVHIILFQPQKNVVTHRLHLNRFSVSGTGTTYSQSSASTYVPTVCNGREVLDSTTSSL

CC(=O)N[C@H]1[C@H]2[C@H](C(=O)O)[C@H]2[C@](N)(C(=O)O)[C@@H]1CSc1ccc(F)c(C)c1 gave an IC50 [1] of 26.2 nM, a Ki [2] of 7.7 nM and an IC50 [3] of 12.4 nM. It also gave a Ki [4] of 9.2 nM.
For Cc1ccc(SC[C@@H]2[C@@H](O)[C@H]3[C@H](C(=O)O)[C@H]3[C@]2(N)C(=O)O)cc1C, the IC50 [1] was 27.6 nM and the Ki [4] was 14.2 nM.
For N[C@@]1(C(=O)O)C[C@H](O)[C@H]2[C@H](C(=O)O)[C@H]21, the IC50 [5] was 22.6 nM.
In the case of N[C@@]1(C(=O)O)[C@H](Cc2ccc(F)c(Cl)c2)C[C@H]2[C@H](C(=O)O)[C@H]21, the IC50 [3] is reported as 110 nM.
Molecule N[C@@]1(C(=O)O)CC[C@H]2[C@H](C(=O)O)[C@H]21 has an IC50 [6] of 27.9 nM and an IC50 [5] of 7 nM.
N[C@]1(C(=O)O)[C@@H]2[C@@H](C(=O)O)[C@@H]2[C@H](O)[C@H]1CSc1ccccc1 was tested, and the Ki [2] was 19.2 nM and the IC50 [3] was 202 nM.
In the case of N[C@]1(C(=O)O)[C@@H]2[C@@H](C(=O)O)[C@@H]2[C@H](O)[C@@H]1CSc1ccccc1, the Ki [2] is reported as 251 nM and the IC50 [3] is reported as 2410 nM.
N[C@]1(C(=O)O)[C@@H]2[C@@H](C(=O)O)[C@@H]2[C@@H](O)[C@@H]1CSc1ccccc1 was tested, and the Ki [2] was 238 nM and the IC50 [3] was 2160 nM.
Work on N[C@]1(C(=O)O)[C@@H]2[C@@H](C(=O)O)[C@@H]2[C@H](O)[C@H]1CSc1ccccc1F yielded an IC50 [1] of 1440 nM, a Ki [2] of 369 nM and an IC50 [3] of 967 nM. It also gave a Ki [4] of 728 nM.
For Cc1cc(SC[C@@H]2[C@@H](O)[C@H]3[C@H](C(=O)O)[C@H]3[C@]2(N)C(=O)O)ccc1F, the IC50 [1] was 17.2 nM and the Ki [4] was 8.9 nM.
